According to US9617289B2, “RSV antiviral compounds” (JANSSEN R&D IRELAND, priority 2012, dated 2017):

Columns and labels:
rgRSV224 virus = experiment: Antiviral activity: inhibition of rgRSV224 (GFP-expressing RSV) replication in HeLa cells; format: cell-based, respiratory syncytial virus; settings: human respiratory syncytial virus, HeLa, 72 h, read-out: RSV-wt_pEC50, rgRSV224 (MOI=0.02) in HeLa cells, GFP expression three days post-virus exposure
Procedure, shortened: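 HeLa cells infected with GFP-expressing rgRSV224 at MOI 0.02 alongside 4-fold compound dilutions in duplicate (0.5% DMSO). Incubated 3 days at 37 °C; EC50 taken as 50% inhibition of GFP expression by laser microscopy. CC50 measured in parallel uninfected cells by ATP content after 3 days; SI = CC50/EC50.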

| SMILES | EC50 (rgRSV224 virus) [nM] | melting point [°C] |
| --- | --- | --- |
| N#CCCCn1c(CN2c3ccccc3[C@]3(C[C@@H](O)C3)C2=O)nc2cc(Cl)ccc21 [Compound 176, 4-(5-chloro-2-(((1r,3r)-3-hydroxy-2′-oxospiro[cyclobutane-1,3′-indolin]-1′-yl)methyl)-1H-benzo[d]imidazol-1-yl)butanenitrile] | 0.363 | 217.25 |
| COC(=O)N1CCC2(CC1)C(=O)N(Cc1nc3cc(Cl)ccc3n1CCCCF)c1cnccc12 [Compound 178, Methyl 1′-{[5-chloro-1-(4-fluorobutyl)-1H-benzimidazol-2-yl]methyl}-2′-oxo-1′,2′-dihydro-1H-spiro[piperidine-4,3′-pyrrolo[2,3-c]pyridine]-1-carboxylate] | 0.0288 | 182.68 |
| CC(C)OC(=O)N1CCC2(CC1)C(=O)N(Cc1nc3cc(Cl)ccc3n1CCCCF)c1cnccc12 [Compound 179, 1-Methylethyl 1′-{[5-chloro-1-(4-fluorobutyl)-1H-benzimidazol-2-yl]methyl}-2′-oxo-1′,2′-dihydro-1H-spiro[piperidine-4,3′-pyrrool[2,3-c]pyridine]-1-carboxylate] | 0.0437 | 198.92 |
| N#CCCCn1c(CN2C(=O)C3(CN(S(=O)(=O)C4CC4)C3)c3ccccc32)nc2cc(Cl)ccc21 [Compound 180, 4-(5-Chloro-2-{[1-(cyclopropylsulfonyl)-2′-oxospiro[azetidine-3,3′-indol]-1′(2′H)-yl]methyl}-1H-benzimidazol-1-yl)butanenitrile] | 0.117 | 190.42 |
| N#CCCCn1c(CN2C(=O)C3(CCN(C(=O)C(O)(C(F)(F)F)C(F)(F)F)CC3)c3ccncc32)nc2cc(Cl)ccc21 [Compound 181, 4-[5-Chloro-2-({2′-oxo-1-[3,3,3-trifluoro-2-hydroxy-2-(trifluoromethyl)propanoyl]spiro[piperidine-4,3′-pyrrolo[2,3-c]pyridin]-1′(2′H)-yl}methyl)-1H-benzimidazol-1-yl]butanenitrile] | 0.251 | 240.41 |
| CC(C)(O)C(=O)N1CC2(C1)C(=O)N(Cc1nc3cc(Cl)ccc3n1CCCCF)c1ccccc12 [Compound 183, 1′-{[5-Chloro-1-(4-fluorobutyl)-1H-benzimidazol-2-yl]methyl}-1-(2-hydroxy-2-methylpropanoyl)spiro[azetidine-3,3′-indol]-2′(1′H)-one] | 0.0759 | 219.71 |
